Data as given in US10849960B2 (priority 2017, dated 2020).

B1: IFNα: human IFN-α2a, gift of Hoffmann LaRoche (protein)
chain: MARPFAFLMVLVVISYWSTCSLGCDLPQTHNLRNKKILTLLAQMRRLSPLSCLKDRKDFGFPQEKVDAQQIQEAQAIPVLSELTQQILTLFTSKDSSAAWNATLLDSFCTGLHQLLNDLQGCLMQLVGMKELPLTQEDSQLAMKKYFHRITVYLREKKHSPCAWEVVRAEVWRALSSSVNLLARLSEEKE
modifications: Mouse
notes: human IFN-α2a, gift of Hoffmann LaRoche

Assays:
Type in all cases: cell-based, human
STAT1 = test: Western blot for phosphorylated STAT1; conditions: OVCAR-5 and A2780 cell lines; 20 minutes
Procedure: FIGS. 6A-6B: Western blot analysis of IFN and IL4-PE STAT activation. (FIG. 6A) Western blots for phosphorylated STAT1 in OVCAR-5 and A2780 cells stimulated with IFNα2a, IFNγ, IL4-PE, or all three agents for 20 minutes at the highest concentrations from FIGS. 1A-1B (representative of three separate experiments). (FIG. 6B) Western blots for phosphorylated STAT6 in OVCAR-5 and A2780 cells stimulated with IFNα2a, IFN, IL4-PE, or all three agents for 20 minutes (representative of three separate experiments). P38 protein kinase was used as a loading control.
Cell pellets were snap-frozen and stored at −80° C. Pellets were thawed and lysed with MPER buffer supplemented with protease inhibitors. Cell lysates were centrifuged at 13,000 RPM at 4° C. for 20 minutes to clarify the lysate. The clarified lysate was removed and placed in a new vial. The protein concentration was measured using a NANODROP® Spectrophotometer (LIFE TECHNOLOGIES®, Wilmington, Del.). The lysate was mixed with reducing loading buffer (LIFE TECHNOLOGIES®, Waltham Mass.) and heated at 90° C. for 10 minutes. The samples were allowed to cool and were either used immediately or stored at 4° C. for future analysis. The samples were analyzed using 10% Bis-Tris gels and then transferred to nitrocellulose membranes per the manufacturer's directions. […]

OVCAR-5 cells = test: Chemical inhibition of Jak signaling, cytotoxicity assay; conditions: inhibitor 10 μM, 2 hours before, 20/4 and 200/40 ng/mL IFNs/IL4-PE, 3 days
Procedure: (§1) FIGS. 7A-7D: Chemical inhibition of Jak signaling. OVCAR-5 cells (FIGS. 7A-7B) or A2780 cells (FIGS. 7C-7D) were treated with either ruxolitinib or tofacitinib for 2 hours at a final concentration of 10 μm before different concentrations of IFNs, IL4-PE or the combination of each were added. Percent viability was measured after 3 days in culture.
(§2) Cell lines were seeded at 10^4 cells/well in a 96-well plate in 100 μL of media and incubated until adherence (4 hr, 37° C., 5% CO2). Serial dilutions of IL4-PE, IFN-α2a, or IFN-γ were added and incubated for three days. IFNs were diluted using serial dilutions in cRPMI to obtain a final concentration of 200 ng/mL of both IFN-α2a or IFN-γ. For ruxolitinib and tofacitinib studies, 10 μM (final concentration) was added to the plates and incubated at 37° C. for 2 hours before IFNs or IL4-PE was added. The media was then removed, and cell viability was determined by crystal violet dye uptake in fixed, live cells. Crystal violet is a triarylmethane dye that binds to ribose type molecules such as DNA in nuclei. The dye staining is directly proportional to the cell biomass. Dye absorbance was measured at 570 nm using a spectrophotometer.

A2780 cells = test: as above; conditions: inhibitor 10 μM, 2 hours before
Procedure: as §1, §2

| Molecule | STAT1 phosphorylation (STAT1) | effect on IFN- and IFNs and IL4-PE-mediated cell death / IFN signaling (OVCAR-5 cells) | effect on IFN signaling / IFN-mediated killing (A2780 cells) |
| --- | --- | --- | --- |
| IFNγ: IFN-γ purchased from INTERMUNE Pharmaceutical Inc. | induced | – | – |
| C[C@@H]1CCN(C(=O)CC#N)C[C@@H]1N(C)c1ncnc2[nH]ccc12 [Tofacitinib, tofacitinib] | – | dose-dependent blocking of IFN signaling | blocked |
| B1 | induced | – | – |
